Where only a bound is given, the exact number is not on record here.

These results are taken from patent publication US12162857B2, “Antiviral compounds” (priority 2022, dated 2024).

For one test, the system named is HMPV A2 TN/94-49. Description: HMPV antiviral assay: LLC-MK2 cells, ATP-Lite readout. Conditions: MOI 0.005, 7 days incubation. The format is cell-based. In a few lines: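 LLC-MK2 cells (5,000/well) were infected in suspension with HMPV A2 TN/94-49 at MOI 0.005 in serum-free OptiMEM with 2 μg/mL final TPCK-trypsin, then incubated for 7 days at 37 °C. Compounds were tested in duplicate from 2 μM in 10-point 2.5-fold dilutions. ATP-Lite luminescence, normalised to virus-only and cells-only controls as % cell health, gave EC50 by four-parameter fit.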

Test [1] relates to Human RSV-A (“Long” strain). Description: RSV-A assay: CPE in Hep-2 cells, ATPlite readout. Format: cell-based. To be noted: MOI 0.1, 5-day incubation. The text has this: Hep-2 cells, (originally derived from tumors grown in irradiated-cortisonised weanling rats that had been injected with epidermoid carcinoma tissue from a person's larynx, but later found to be indistinguishable from HeLa cells by PCR DNA analysis), were used for the culturing of genotype A, “Long” strain RSV. Flasks were inoculated with RSV and viral stocks were collected once cytopathic effect (CPE) was greater than 90%. Viral stocks in 25% sucrose media were snap frozen using liquid nitrogen to increase viral stability. Viral stock titers were quantified by tissue culture infectious dose 50% (TCID50) using 8,000 cells per well and 3-fold viral dilutions across a 96-well plate, cultured for 4 days. Viral stock titers were also quantified by a plaque forming unit assay, as described elsewhere.
Following extensive parameter testing, the final assay is run as follows: Hep-2 cells are seeded into the inner 60 wells of a 96-well plate at 8,000 cells per well in a volume of 50 μL using Growth Media (DMEM without phenol red, 1% L-Glut, 1% Penn/Strep, 1% nonessential amino acids, 10% heat-inactivated FBS). 2-fold serial dilutions of control and test compounds are added to the wells in duplicate in a total volume of 25 μL. Viral stock is then added to the wells at a multiplicity of infection (MOI) of 0.1 in a volume of 25 μL, bringing the total volume of each well to 100 μL. The MOI is calculated using the PFU/mL, or TCID50 if unavailable. Each 96-well plate has a control column of 6 wells with cells and virus but no compound (negative control, max CPE), a column with cells but no compound or virus (positive control, minimum CPE), and a column with no cells or virus or compound (background plate/reagent control). The control wells with cells but no virus are given an additional 25 μL of growth media containing an equal quantity of sucrose as those wells receiving the viral stock in order to keep consistent in media and volume conditions. The outer wells of the plate are filled with 125 μL of moat media (DMEM, 100 Penn/Strep) to act as a thermal and evaporative moat around the test wells. Following a 5-day incubation period, the plates are read using ATPlite (50 uL added per well), which quantifies the amount of ATP (a measure of cell health) present in each well. Assay plates are read using the Envision luminometer. […] EC50 ranges are as follows: A<0.01 μM; B 0.01-0.05 μM; C>0.05 μM.

[2] abbreviates: human respiratory syncytial virus, 120 h.

In the case of `COc1cc(C(=O)NC[C@](O)(c2cc(C(C)(C)O)c(F)c(-c3ccc(F)cc3)n2)C2CC2)cc2cc(C3CC3)nn12` (single isomer, unassigned) [Example 8], the EC50 with HMPV A2 TN/94-49 (LLC-MK2, 168 h) is less than 1000 nM; in test [1] (setting [2]) it was less than 10 nM.

As for `COc1cc(C(=O)NC[C@@](O)(c2ccccc2)c2cc(C(C)(C)O)c(F)c(-c3cccc(Cl)c3Cl)n2)cc2cn(C3CC3)nc12` [Example 79], the EC50 is less than 1000 nM with HMPV A2 TN/94-49 (LLC-MK2, 168 h) and less than 10 nM in test [1] (setting [2]).

With `COc1cc(C(=O)NC[C@](O)(c2cc(N3CC[C@@H](O)C3)cc(-c3cc(Cl)c(F)cc3F)n2)C2CC2)cc2cn(C3CC3)nc12` [Example 200], the EC50 was more than 1000 nM in the test on HMPV A2 TN/94-49 (LLC-MK2, 168 h) and more than 50 nM in test [1] (setting [2]).

In the case of `COc1cc(C(=O)NC[C@](O)(c2cc(C3(C(N)=O)CC3)c(F)c(-c3ccc(F)c(Cl)c3F)n2)C2CC2)cc2cn(C(F)F)nc12` (single isomer, unassigned) [Example 21], the EC50 in the test with HMPV A2 TN/94-49 (LLC-MK2, 168 h) was more than 1000 nM; in test [1] (setting [2]), less than 10 nM.

Turning to `Cc1nc2c(OC3CC3)cc(C(=O)NC[C@](O)(c3cc(C4(O)CC4)c(F)c(-c4ccc(F)cc4)n3)C3CC3)cc2cc1Cl` (single isomer, unassigned) [Example 49], the EC50 was more than 1000 nM in the test with HMPV A2 TN/94-49 (LLC-MK2, 168 h) and less than 10 nM in test [1] (setting [2]).

For the compound `COc1cc(C(=O)NC[C@](O)(c2cc(C(C)(C)O)c(F)c(-c3ccc(F)cc3)n2)C2CC2)cc2cn(C(F)F)nc12` [Example 2], the EC50 in the test on HMPV A2 TN/94-49 (LLC-MK2, 168 h) was less than 1000 nM; in test [1] (setting [2]), less than 10 nM.

Take `COc1cc(C(=O)NC[C@](O)(c2cc(C3(C(N)=O)CC3)c(F)c(-c3cc(Cl)c(F)cc3F)n2)C2CC2)cc2cc(Cl)c(C)nc12` (single isomer, unassigned) [Example 19]: the EC50 is more than 1000 nM in the test with HMPV A2 TN/94-49 (LLC-MK2, 168 h) and less than 10 nM in test [1] (setting [2]).

As to `[2H]C([2H])([2H])C(O)(c1cc([C@@](O)(CNC(=O)c2cc(OC)n3nc(C4CC4)cc3c2)c2ccccc2)nc(-c2cc(Cl)c(F)cc2F)c1F)C([2H])([2H])[2H]` [Example 184], the 50% effective concentration (EC50) with HMPV A2 TN/94-49 (LLC-MK2, 168 h) is less than 1000 nM; in test [1] (setting [2]) it was less than 10 nM.

For the compound `Cc1nc2c(OC(F)F)cc(C(=O)NC[C@](O)(c3cc(C(C)(C)O)c(F)c(-c4cc(Cl)c(F)cc4F)n3)C3CC3)cc2cc1Br` [Example 59], the EC50 with HMPV A2 TN/94-49 (LLC-MK2, 168 h) is more than 1000 nM; in test [1] (setting [2]), less than 10 nM.

Regarding `[2H]C([2H])([2H])C(O)(c1cc([C@@](O)(CNC(=O)c2cc(OC)c3nn(C4CC4)cc3c2)c2ccccc2)nc(-c2cc(Cl)c(F)cc2F)c1F)C([2H])([2H])[2H]` [Example 183], the EC50 with HMPV A2 TN/94-49 (LLC-MK2, 168 h) was less than 1000 nM; in test [1] (setting [2]), less than 10 nM.

For `COc1cc(C(=O)NC[C@](O)(c2cc(C3(C(N)=O)CC3)cc(-c3cc(Cl)c(F)cc3F)n2)C2CC2)cc2cn(C3CC3)nc12` (single isomer, unassigned) [Example 24], the EC50 in the test on HMPV A2 TN/94-49 (LLC-MK2, 168 h) was more than 1000 nM; in test [1] (setting [2]), 10 to 50 nM.

Regarding `COc1c(C(C)(C)O)cc([C@@](O)(CNC(=O)c2cc(OC)c3nn(C4CC4)cc3c2)C2CC2)nc1-c1cc(Cl)c(F)cc1F` [Example 164], the 50% effective concentration (EC50) in the test with HMPV A2 TN/94-49 (LLC-MK2, 168 h) is more than 1000 nM; in test [1] (setting [2]), more than 50 nM.

In the case of `Cc1nc2c(OC(F)F)cc(C(=O)NC[C@@](O)(c3ccccc3)c3cc(C(C)(C)O)c(F)c(-c4cc(Cl)c(F)cc4F)n3)cc2cc1Br` [Example 66], the concentration giving a half-maximal response (EC50) in the test on HMPV A2 TN/94-49 (LLC-MK2, 168 h) is less than 1000 nM; in test [1] (setting [2]), more than 50 nM.

In turn, `Cc1nc2c(OC(F)F)cc(C(=O)NC[C@](O)(c3cc(C(C)(C)C(N)=O)c(F)c(-c4ccc(F)cc4)n3)C3CC3)cc2cc1Br` (single isomer, unassigned) [Example 45] yielded an EC50 in test [1] (setting [2]) of 10 to 50 nM.

The compound `Cc1nc2c(OC3CC3)cc(C(=O)NC[C@](O)(c3cc(C(C)(C)C(N)=O)c(F)c(-c4ccc(F)cc4)n3)C3CC3)cc2cc1Cl` (single isomer, unassigned) [Example 44] returned a concentration giving a half-maximal response (EC50) in test [1] (setting [2]) of less than 10 nM.

Consider `COc1cc(C(=O)NC[C@](O)(c2cc(C(F)(F)C(N)=O)c(F)c(-c3ccc(F)c(Cl)c3F)n2)C2CC2)ccc1OC[C@@H](C)O` (single isomer, unassigned) [Example 37], for which the EC50 in test [1] (setting [2]) was more than 50 nM.

In test [1] (setting [2]), `N#CC1(c2cc([C@@](O)(CNC(=O)c3cc(OC4CC4)c4nn(C5(F)CC5)cc4c3)C3CC3)nc(-c3cc(Cl)c(F)cc3F)c2F)CC1` (single isomer, unassigned) [Example 17] returned an EC50 of 10 to 50 nM.

`COc1cc(C(=O)NC[C@](O)(c2cc(C(F)(F)C#N)c(F)c(-c3cc(Cl)c(F)cc3F)n2)C2CC2)cc2cn(C3(F)CC3)nc12` [Example 40] came in with an EC50 in test [1] (setting [2]) of 10 to 50 nM.

On to `COc1cc(C(=O)NC[C@](O)(c2cc(C(C)(C)O)c(F)c(-c3cc(Cl)c(F)cc3F)n2)C2CC2)cc2cn(C3CC3)nc12` [Example 52], for which the EC50 in the test on HMPV A2 TN/94-49 (LLC-MK2, 168 h) is less than 1000 nM; in test [1] (setting [2]), less than 10 nM.

Consider `COc1cc(C(=O)NC[C@@](O)(c2ccccc2)c2cc(C(C)(C)O)c(Cl)c(-c3cc(Cl)c(F)cc3F)n2)cc2cn(C3CC3)nc12` [Example 144], for which the EC50 in the test on HMPV A2 TN/94-49 was less than 1000 nM; in test [1], less than 10 nM.

Turning to `COc1cc(C(=O)NC[C@](O)(c2cc(C3(C#N)CC3)c(F)c(-c3cc(Cl)c(F)cc3F)n2)C2CC2)cc2cn(C3CC3)nc12` (single isomer, unassigned) [Example 12], the EC50 in test [1] (setting [2]) lay in the range of 10 to 50 nM.

`COc1cc(C(=O)NC[C@](O)(c2cc(C(F)(F)C(N)=O)c(F)c(-c3cc(Cl)c(F)cc3F)n2)C2CC2)cc2cc(Cl)c(C)nc12` (single isomer, unassigned) [Example 42] returned an EC50 in test [1] (setting [2]) of more than 50 nM.

The compound `COc1cc(C(=O)NC[C@](O)(c2cc(C(F)(F)C(N)=O)c(F)c(-c3ccc(F)c(Cl)c3F)n2)C2CC2)cc2cn(C(F)F)nc12` (single isomer, unassigned) [Example 34] came in with an EC50 in test [1] (setting [2]) of 10 to 50 nM.

As for `COc1cc(C(=O)NC[C@](O)(c2cc(C(C)(C)C(N)=O)c(F)c(-c3ccc(F)cc3)n2)C2CC2)cc2cn(C3CC3)nc12` (single isomer, unassigned) [Example 43], in test [1] (setting [2]), the concentration for a half-maximal effect (EC50) is less than 10 nM.

Turning to `COc1cc(C(=O)NC[C@](O)(c2cc(C3(C(N)=O)CC3)c(F)c(-c3cc(Cl)c(F)cc3F)n2)C2CC2)cc2cn(C3CC3)nc12` (single isomer, unassigned) [Example 11], the EC50 in test [1] (setting [2]) lay within 10 to 50 nM.

`COc1cc(C(=O)NC[C@](O)(c2cc(C3(C(N)=O)CC3)cc(-c3ccc(F)c(Cl)c3F)n2)C2CC2)cc2cn(C(F)F)nc12` (single isomer, unassigned) [Example 27] gave a 50% effective concentration (EC50) in test [1] (setting [2]) of less than 10 nM.

Compound `N#CC1(c2cc([C@@](O)(CNC(=O)c3cc(OC4CC4)c4nn(C5CC5)cc4c3)C3CC3)nc(-c3cc(Cl)c(F)cc3F)c2F)CC1` (single isomer, unassigned) [Example 15] displayed an EC50 in test [1] (setting [2]) of 10 to 50 nM.

With `NC(=O)C(F)(F)c1cc([C@@](O)(CNC(=O)c2cc(OC3CC3)c3nn(C4CC4)cc3c2)C2CC2)nc(-c2ccc(F)c(Cl)c2F)c1F` (single isomer, unassigned) [Example 36], the EC50 in test [1] (setting [2]) was 10 to 50 nM.

For the compound `NC(=O)C1(c2cc([C@@](O)(CNC(=O)c3cc(OC4CC4)c4nn(C5(F)CC5)cc4c3)C3CC3)nc(-c3cc(Cl)c(F)cc3F)c2F)CC1` (single isomer, unassigned) [Example 16], the EC50 in test [1] (setting [2]) fell in the range of 10 to 50 nM.

Compound `COc1cc(C(=O)NC[C@](O)(c2cc(C(F)(F)C(N)=O)c(F)c(-c3ccc(F)c(Cl)c3F)n2)C2CC2)cc2cc(Cl)c(C)nc12` (single isomer, unassigned) [Example 35] yielded an EC50 in test [1] (setting [2]) of more than 50 nM.

In test [1] (setting [2]), `NC(=O)C1(c2cc([C@@](O)(CNC(=O)c3cc(OC4CC4)c4nn(C5CC5)cc4c3)C3CC3)nc(-c3cc(Cl)c(F)cc3F)c2F)CC1` (single isomer, unassigned) [Example 14] displayed an EC50 of 10 to 50 nM.

Turning to `COc1cc(C(=O)NC[C@](O)(c2cc(C(F)(F)C(N)=O)c(F)c(-c3ccc(F)c(Cl)c3F)n2)C2CC2)cc2cn(C3(F)CC3)nc12` (single isomer, unassigned) [Example 33], the EC50 in test [1] (setting [2]) was less than 10 nM.

`Cc1nc2c(OC(F)F)cc(C(=O)NC[C@](O)(c3cc(C(O)(C(F)(F)F)C(F)(F)F)c(F)c(-c4ccc(F)cc4)n3)C3CC3)cc2cc1Br` (single isomer, unassigned) [Example 46] had an EC50 in test [1] (setting [2]) of 10 to 50 nM.

`COc1cc(C(=O)NC[C@](O)(c2cc(C(F)(F)C(N)=O)c(F)c(-c3cc(Cl)c(F)cc3F)n2)C2CC2)cc2cn(C3(F)CC3)nc12` (single isomer, unassigned) [Example 39] had a concentration giving a half-maximal response (EC50) in test [1] (setting [2]) of less than 10 nM.
